Patent US20140018242A1, “METHOD OF CROP ENHANCEMENT” (SYNGENTA PARTICIPATIONS AG, priority 2010, published 2014)

Experiments:
Type in all cases: in vivo
[1] = system: Soybeans (Glycine max); assay: Foliar application to soybeans, effects on water consumption, plant height, chlorophyll content; conditions: soybean, 26 days after spray; for water consumption: foliar spray 100 ga/ha (EC050) 21 days after sowing, no watering after spray; for plant height / chlorophyll content: foliar spray 100 ga/ha (EC050); for chlorophyll content: third trifoliate-leaf
Description: Soybean plants were grown in a climate chamber at 22° C. during 14 h daytime and 20° C. during 10 h night at 70% rel.humidity. Plants were sprayed 21 days after sowing with a 100 ga/ha of the test compound, formulated as a standard EC050. Water status was adjusted befor spray for all pots, and plants not watered anymore after spray. After growing further 26 days in the controlled environment, the plant height, chlorophyll content of the third trifoliate-leaf, and water consumption was determined.

[2] = system: Soybeans (Glycine max); assay: Foliar application to soybeans, effects on yield (number and size of pods, root parameters); conditions: 68 g AI/ha foliar, 29DAA; for No. of root tips, Mean (in %) relative to check / Root length, Mean (in %) relative to check: WinRhizo; for Mean no. of pods per plant, only pods >20 mm: check 1.8; for Mean no. of pods per plant, all pods considered: check 5.4; for pod length - sum per trmt (mm), only pods >20 mm: check 276; for pod length - sum per trmt (mm), all pods considered: check 452
Description: Three week old soybean plants (5 replicates) were sprayed with respective test solutions. Test solutions contained the formulated test compound and the adjuvant Mero (0.1% v/v). Plants were kept under glasshouse conditions at 22° C. with a photo-period of 14 h. 29d after application the individual number and size of pods per plant were measured. Additionally, the overall root system of individual plants was scanned and analysed by the image analysis software ‘WinRhizo’ (Regent Instruments Inc., 2009). […] The average number of taller pods (related to number of seeds) was increased.

[3] = system: Spring-wheat; assay: Foliar application to spring-wheat, effects on water consumption, plant height; conditions: 26 days after spray; for water consumption: foliar spray 50 ga/ha (EC050) 21 days after sowing, no watering after spray; for plant height: foliar spray 50 ga/ha (EC050)
Description: Wheat plants were grown in a climate chamber at 18° C., 14 h daytime and 10 h night, at 70% rel.humidity. Plants were sprayed 21 days after sowing with a 50 ga/ha of the test compound, formulated as a standard EC050. Water status was adjusted before spray for all pots and plants not watered anymore after spray. After growing further 26 days in the controlled environment the plant height, and water consumption was determined.

[4] = system: Soybeans (Glycine max); assay: Soil application (drench) to soybeans in rhizoboxes, effects on root system and shoot; conditions: 30DAA; for Stem thickness (mm) below respective leaf, Mean / leaf area (cm^2), Mean: 0.12 mg AI per plant drench
Description: Three two-week old soybean plants were transplanted to ‘rhizoboxes’ (ca. 12 L soil volume). One day later 0.12 mg Al of compound T1.070, wherein G is CO2Et, were applied (drench) to each plant. Plants were kept under glasshouse conditions at 22° C. with a photo-period of 14 h. 30 DAA the entire root system per rhizobox was scanned and analysed by the image analysis software ‘WinRhizo’ (Regent Instruments Inc., 2009).

[5] = system: Barley (Hordeum vulqare); assay: Foliar application to barley, plant growth effects (plant height, tillers); conditions: 12.5 ppm foliar, 9DAA; for av. tillers per plant: check 0
Description: Five replicates (pots with three 10d old barley plants each) were sprayed with respective test solutions. Test solutions contained the formulated test compound and the adjuvant Mero (0.1% v/v). Plants were kept under glasshouse conditions at 22° C. with a photo period of 14 h. 9d after application the average plant height per replicate was measured and the number of tillers per replicate was counted. […] Additionally, the number of tillers were increased.

[6] = system: French beans (Phaseolus vulgaris); assay: Soil application to French beans, effects on flowering (BBCH) and plant physiology (NDVI, NIR); set-up: NIR (Near infrared band reflectance): unit not given here; conditions: 0.01 mg AI per plant drench, mean of 4 reps
Description: Four two week old French bean plants were treated with 0.01 mg Al per plant as soil application (drench). Plants were kept under glasshouse conditions at 22° C. with a photo-period of 14 h. 15DAA the development stage of blossoms was assessed. 25DAA the photosynthetic capacity of plants (NDVI, NIR) was measured.

[7] = soybean, drench 0.12 mg AI per plant
[8] = soybean, drench 0.12 mg AI per plant, entire root system per rhizobox, WinRhizo

SMILES | water consumption [1] | plant height [1] | chlorophyll content [1] | No. of root tips, Mean (in %) relative to check [2] | Root length, Mean (in %) relative to check [2] | Mean no. of pods per plant, only pods >20 mm [2] | Mean no. of pods per plant, all pods considered [2] | pod length - sum per trmt (mm), only pods >20 mm [2] | pod length - sum per trmt (mm), all pods considered [2] | water consumption [3] | plant height [3] | av. plant height (cm) [5] | av. tillers per plant [5] | other results
CCOC(=O)OC1=C(c2c(C)cc(Cl)cc2C)C(=O)N(C)C12CCN(OC)CC2 [T1.067, wherein G is CO2Et] | 376 ml/26 days | 16.5 cm | 43.4 reflectance | 18.8% | 16.1% | 3.4 | 6.0 | 545 mm | 682 mm | 219 ml/26 days | 26.9 cm |  |  | 
CCOC(=O)OC1=C(c2c(C)cc(C)cc2C)C(=O)N(C)C12CCN(OC)CC2 [T1.070, wherein G is CO2Et] | 393 ml/26 days | 17.3 cm | 39.9 reflectance | 43.7% | 32.0% | 3.2 | 5.8 | 516 mm | 674 mm | 208 ml/26 days | 27.4 cm |  |  | Stem thickness (mm) below respective leaf, Mean ([4]; 1st trifoliate leaf, untreated 2.04): 2.39 mm; leaf area (cm^2), Mean ([4]; 1st trifoliate leaf, untreated 42.95): 60.59 cm^2; Stem thickness (mm) below respective leaf, Mean ([4]; 1st true leaves, untreated 2.31): 2.87 mm; leaf area (cm^2), Mean ([4]; 1st true leaves, untreated 28.54): 39.82 cm^2; Stem thickness (mm) below respective leaf, Mean ([4]; 2nd trifoliate leaf, untreated 1.87): 2.09 mm; leaf area (cm^2), Mean ([4]; 2nd trifoliate leaf, untreated 58.76): 72.44 cm^2; Stem thickness (mm) below respective leaf, Mean ([4]; 3rd trifoliate leaf, untreated 1.60): 1.86 mm; leaf area (cm^2), Mean ([4]; 3rd trifoliate leaf, untreated 58.01): 77.72 cm^2; Stem thickness (mm) below respective leaf, Mean ([4]; 4th trifoliate leaf, untreated 1.11): 1.32 mm; leaf area (cm^2), Mean ([4]; 4th trifoliate leaf, untreated 18.09): 27.48 cm^2; Shoot growth (plant growth) [4, 7]: Enhanced plant growth was also observed by fortified shoot growth.; Visual impression of root system [4, 7]: clearly enhanced root system; Root parameters relative to check: Length (cm), rel. to check (0%) [4, 8]: 41.3%; Root parameters relative to check: RootVolume (cm3), rel. to check (0%) [4, 8]: 52.2%; Root parameters relative to check: SurfaceArea (cm2), rel. to check (0%) [4, 8]: 46.6%; Root parameters relative to check: Tips, rel. to check (0%) [4, 8]: 63.1%
CCOC(=O)OC1=C(c2c(C)cc(Br)cc2C)C(=O)NC12CCN(OC)CC2 [T1iii.66, wherein G is CO2Et] |  |  |  |  |  |  |  |  |  |  |  | 27.2 cm | 4.2 | 
CCOC(=O)OC1=C(c2c(C)cc(Cl)cc2C)C(=O)NC12CCN(OC)CC2 [T1iii.67, wherein G is CO2Et] | 379 ml/26 days | 16.5 cm | 44.6 reflectance |  |  |  |  |  |  | 218 ml/26 days | 27.9 cm | 24.4 cm | 3.8 | 
CCOC(=O)OC1=C(c2c(C)cc(C)cc2C)C(=O)N(OCOC)C12CCN(OC)CC2 [T20ii.070, wherein G is CO2Et] |  |  |  |  |  |  |  |  |  |  |  |  |  | BBCH (plant growth stage) ([6]; 15DAA, check 57): 59; NDVI (Normalized difference vegetative index) ([6]; 25DAA, check 0.431): 0.539; NIR (Near infrared band reflectance) ([6]; 25DAA, check 4.32): 4.65
